Source: patent publication US7919488B2, “Therapeutic compounds” (Pfizer Inc., priority 2006, dated 2011)

How the values were obtained:
Assay type in all cases: biochemical
[1] = molecular target: T1, recombinant CYP3A4+b5 enzyme (Supersomes®) (Homo sapiens, UniProt P08684); assay: Kiapp against recombinant CYP3A4 enzyme (Supersomes), BFC substrate; conditions: recombinant CYP3A4+b5 (BD Biosciences), 5 uM BFC, 200 uM NADPH, pre-incubation at least 30 minutes, pH 7.0, room temperature
T1 construct: purchased BD Biosciences (Woburn, Mass.)
T1 sequence (P08684 2-503 limits assumed): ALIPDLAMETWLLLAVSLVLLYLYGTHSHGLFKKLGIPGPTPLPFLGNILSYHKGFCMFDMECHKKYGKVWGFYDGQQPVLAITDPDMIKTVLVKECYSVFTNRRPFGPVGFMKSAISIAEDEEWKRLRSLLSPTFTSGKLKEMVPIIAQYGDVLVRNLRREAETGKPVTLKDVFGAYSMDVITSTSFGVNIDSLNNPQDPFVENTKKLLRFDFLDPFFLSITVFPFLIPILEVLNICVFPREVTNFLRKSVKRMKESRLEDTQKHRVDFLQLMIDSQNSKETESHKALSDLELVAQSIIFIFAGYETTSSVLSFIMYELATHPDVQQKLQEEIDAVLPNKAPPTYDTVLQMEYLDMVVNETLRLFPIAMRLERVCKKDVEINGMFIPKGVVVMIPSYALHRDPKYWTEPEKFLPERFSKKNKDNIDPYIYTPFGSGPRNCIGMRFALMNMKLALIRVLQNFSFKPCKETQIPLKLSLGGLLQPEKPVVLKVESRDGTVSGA
Description: 1. Determination of Compound Kiapp
A determination of the Kiapp of the compounds of the invention against recombinant CYP3A4 enzyme was performed as follows. The assay was performed in a 100 mM sodium phosphate buffer pH 7.0, 5 mM TCEP and containing 2% dimethylformamide (final concentration) upon addition of substrate and inhibitor. A typical reaction for the determination of Kiapp values was carried at room temperature in a solid black Costar u-bottom 96-well polypropylene plate. In each well, recombinant CYP3A4 enzyme (5.5 nM or 8 nM, final concentration depending on the commercial source of the enzyme) was pre-incubated in the presence of the inhibitor for at least 30 minutes in the assay buffer. When pre-incubation was completed (˜30 min), the reaction was initiated by adding NADPH (200 uM, final concentration), and 7-benzyloxy-4-(trifluoromethyl)-coumarin (BFC) (5 uM, final concentration). The oxidation of the coumarin substrate was recorded by a 96-well plate reader POLARstar (BMG LABTECH, Offenburg, Germany).
The initial reaction velocities were measured during the first 5 min of the reaction when the release of the fluorescent product is linear with time, in the absence and in the presence of various concentrations of inhibitors. For non-partial & partial inhibitors, the Kiapp values were determined by using the equation for tight-binding inhibitor developed by Morrison, J F (Morrison J F. Biochim Biophys Acta. 1969, 185: 269-86) and by Szedlaseck S E et al. (Szedlascek, S. E., Ostafe, V., Serban, M., and Vlad, M. O. Biochem. J. 1988, 254:311-312), respectively.
The fluorescent substrate BFC was purchased from Sigma (St Louis, Mo.). Two commercial sources of recombinant enzymes were used in this study: recombinant CYP3A4-b5 enzyme (Baculosomes®) was purchased from Invitrogen (Carlsbad, Calif.) and the recombinant CYP3A4+b5 enzyme (Supersomes®) was purchased from BD Biosciences (Woburn, Mass.).

[2] = molecular target: T2, CYP3A4 (Homo sapiens, UniProt P08684); assay: IC50 against CYP3A4 by inhibition of testosterone metabolism in human liver microsomes; conditions: 0.1 mg/mL human liver microsomes, 25 μM testosterone, 1 mM NADPH, 6-β-OH-testosterone production, eight minutes; read-out: IC50, μM (HLM, testosterone)
T2 construct: 0.1 mg/mL human liver microsomes; from tissue; host or cells: human liver microsomes
T2 sequence (P08684 whole entry): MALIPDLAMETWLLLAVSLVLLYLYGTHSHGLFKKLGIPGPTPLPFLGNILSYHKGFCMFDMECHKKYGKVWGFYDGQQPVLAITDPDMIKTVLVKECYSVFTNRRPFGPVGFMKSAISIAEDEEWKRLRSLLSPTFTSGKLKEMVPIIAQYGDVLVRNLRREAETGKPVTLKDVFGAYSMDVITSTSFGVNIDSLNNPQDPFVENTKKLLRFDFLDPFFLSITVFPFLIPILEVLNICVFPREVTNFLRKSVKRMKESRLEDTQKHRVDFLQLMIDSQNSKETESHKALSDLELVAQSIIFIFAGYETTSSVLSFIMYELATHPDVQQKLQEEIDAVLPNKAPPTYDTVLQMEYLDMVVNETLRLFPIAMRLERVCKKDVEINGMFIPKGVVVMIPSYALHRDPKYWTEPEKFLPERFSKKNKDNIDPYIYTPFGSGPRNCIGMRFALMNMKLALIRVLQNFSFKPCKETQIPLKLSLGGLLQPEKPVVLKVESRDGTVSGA
Outline: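 Testosterone used as substrate, incubated for eight minutes. 6-β-OH-testosterone formation quantified by LC-MS/MS (MRM) as peak area ratio to internal standard against a metabolite standard curve. IC50 derived from inhibition of this metabolism.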

[3] = molecular target: T2, CYP3A4; assay: IC50 against CYP3A4 by inhibition of midazolam metabolism in human liver microsomes; conditions: 0.1 mg/mL human liver microsomes, 2 μM midazolam, 1 mM NADPH, 1-hydroxymidazolam production, eight minutes; read-out: IC50, μM (HLM, midazolam)
Outline: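 Human liver microsomes (0.1 mg/mL) incubated 8 min with 2 μM midazolam and 1 mM NADPH in 100 mM potassium phosphate, pH 7.4. 1-Hydroxymidazolam quantified by LC-MS/MS (MRM) as peak area ratio to internal standard against a metabolite standard curve.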

[4] = molecular target: T3, recombinant CYP3A4-b5 enzyme (Baculosomes®) (Homo sapiens, UniProt P08684); assay: Kiapp against recombinant CYP3A4 enzyme (Baculosomes), BFC substrate; conditions: recombinant CYP3A4-b5 (Invitrogen), 5 uM BFC, 200 uM NADPH, pre-incubation at least 30 minutes, pH 7.0, room temperature
T3 construct: purchased Invitrogen (Carlsbad, Calif.)
T3 sequence (P08684 whole entry): as above
Outline: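 Recombinant CYP3A4-b5 Baculosomes were run in 100 mM sodium phosphate pH 7.0 with 5 mM TCEP and 2% DMF at room temperature, with ~30 min pre-incubation. The reaction was started with NADPH (200 uM) and BFC (5 uM), both final. Kiapp came from initial fluorescence velocities over the first 5 min across inhibitor concentrations.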

SMILES	Ki [1] [µM]	IC50 [2] [µM]	IC50 [3] [µM]	Ki [4] [µM]
O=C(Cn1nc(-c2ccncc2)cc1Cc1ccc(F)cc1)NC1CCS(=O)(=O)C1 (centres unmarked) [Example 93, N-(1,1-dioxidotetrahydro-3-thienyl)-2-[5-(4-fluorobenzyl)-3-pyridin-4-yl-1H-pyrazol-1-yl]acetamide]	0.0039	0.007	0.014	0.0134
CC(C)(CN1CCOCC1)NC(=O)Cn1nc(-c2c[nH]nn2)cc1Cc1ccc(F)cc1 [Example 50, N-(1,1-dimethyl-2-morpholin-4-ylethyl)-2-[5-(4-fluorobenzyl)-3-(1H-1,2,3-triazol-4-yl)-1H-pyrazol-1-yl]acetamide]	0.389	0.168	0.132	0.729
COC(=O)NC1CN(C(=O)Cn2nc(-c3ccncc3)cc2Cc2ccc(F)cc2)C1 [Example 124, methyl (1-{[5-(4-fluorobenzyl)-3-pyridin-4-yl-1H-pyrazol-1-yl]acetyl}azetidin-3-yl)carbamate]	0.0147	0.032	0.025	0.123
CN(C(=O)Cn1nc(-c2ccncc2)cc1Cc1ccc(F)cc1)[C@H]1CC[C@@H](O)CC1 [Example 135, 2-[5-(4-fluorobenzyl)-3-pyridin-4-yl-1H-pyrazol-1-yl]-N-(cis-4-hydroxycyclohexyl)-N-methylacetamide]	0.0358	0.021	0.00867	0.108
COC(=O)N[C@H]1CCN(C(=O)Cn2nc(-c3ccncc3)cc2Cc2ccc(F)cc2)C1 [Example 130, methyl [(3S)-1-{[5-(4-fluorobenzyl)-3-pyridin-4-yl-1H-pyrazol-1-yl]acetyl}pyrrolidin-3-yl]carbamate]	0.00618	0.032	0.015	0.0276
